Measured values as given in publication PMC8936055 (Journal of natural products, 2022).
Where two headings read alike, the source gives them in different places.

Columns and labels:
[1] = system: influenza A virus subtype H1N1; conditions: cited from earlier work
[2] = cited from earlier work
[3] = system: Plasmodium falciparum; conditions: human malarial parasite Plasmodium falciparum; cited from earlier work
[4] = system: SARS-CoV-2; type: cell-based; conditions: Calu-3 cells; for Suppression of viral infection relative to DMSO control, initial screen: 0.5 μM for 1, 1 μM for the others, 48 h, Figure 3; for Suppression of viral infection, follow-up experiment: Figure 4
[5] = system: HIV-1 strain UG/92/029; conditions: read-out: IC50 against HIV-1 strain UG/92/029; cited from earlier work
[6] = system: HIV-1 strain 96USHIPS7; conditions: read-out: IC50 against HIV-1 strain 96USHIPS7; cited from earlier work
[7] = system: SARS-CoV-2; conditions: air-liquid interface culture, test concentration 10 μM, 48 h
[8] = system: SARS-CoV-2; conditions: cited from earlier work
[9] = system: primary human airway cells; conditions: air-liquid interface, 48 h, Figure 5B

## C[C@H]1CC[C@H]2C(C)(C)[C@@H](O)CC[C@]23Oc2c(c(O)cc4c2CNC4=O)C[C@]13C [Compound 16, stachyflin]
[1]
  Activity against influenza A virus subtype H1N1: nanomolar activity

## CC1=C2Cc3cc(ccc3O)C(=O)O[C@H](C(C)(C)Br)CC[C@](C)(O)[C@H](Br)CC[C@]2(C)[C@@H](Br)CC1 [Compound 3, bromophycolide A]
[2]; malaria mouse model
  Toxicity in vivo: low toxicity
[2]; mouse, in vivo
  Bioavailability in vivo: reasonable bioavailability
  In vivo half-life: short in vivo half-life
  Liver metabolism: rapid liver metabolism
[3]
  Blood stage antimalarial activity: sub-micromolar
[4]
  Suppression of viral infection relative to DMSO control, initial screen: significantly suppressed viral infection
[4]; 10 μM
  Suppression of viral infection, follow-up experiment: significant suppression of viral infection
[5]
  IC50: 9.1 µM
[6]
  IC50: 9.8 µM
[7]
  Effect on SARS-CoV-2 replication in primary human airway cells: ineffective

## C[C@H]1CC[C@H]2C(C)(C)CCC[C@]23Oc2ccc(O)cc2C[C@]13C [Compound 2, (+)-aureol]
[4]
  Suppression of viral infection relative to DMSO control, initial screen: significantly suppressed viral infection
[4]; 10 μM
  Suppression of viral infection, follow-up experiment: significant suppression of viral infection
[7]
  Effect on SARS-CoV-2 replication in primary human airway cells: ineffective

## CC(C)=CCC[C@@H](C)[C@H]1CC[C@@]2(C(=O)O)C3=C(CC[C@]12C)[C@@]1(C)CC[C@H](O[C@@H]2OC[C@H](O)[C@H](O[C@@H]4OC[C@H](O)[C@H](O[C@@H]5O[C@H](CO)[C@H](O)[C@H](O)[C@H]5O)[C@H]4O)[C@H]2O[C@@H]2O[C@H](CO)[C@H](O)[C@H](O)[C@H]2O)C(C)(C)C1CC3 (stereo partly shown) [Compound 13, formoside]
[4]; data not shown
  Reduction of SARS-CoV-2 infection in a subsequent experiment: not replicated

## plitidepsin [Compound 4]
[8]
  Potency against SARS-CoV-2 relative to remdesivir: more than 20 times

## CC(=O)C[C@]1(O)c2ccccc2-[n+]2ccc3c([nH]c4ccccc43)c21.O=C([O-])C(F)(F)F [Compound 1, homofascaplysin A]
[4]
  Suppression of viral infection relative to DMSO control, initial screen: significantly suppressed viral infection
[4]; 2.8 μM
  Suppression of viral infection, follow-up experiment: significant suppression of viral infection
[9]
  Effect on adenoviral transduction (toxicity control): did not affect adenoviral transduction
